Assay [1] concerns living human skin explants. In words: Epidermal thickness on living human skin explants. Further details: key: 0 = unchanged; (+) = very slight increased; + = slight increased; ++ = moderate increased; +++ = fairly clear increased; ++++ = clear increased. The format is cell-based. The settings on record: topical. As for the experimental part: (§1) On an abdoplasty coming from a person with a type II phototype, 51 circular skin explants of 11±1 mm in diameter were prepared. The explants were kept for survival in BEM culture medium (BIO-EC's Explants Medium, Longjumeau, France) at 37° C. in a humid, 5% CO2 atmosphere
(§2) Each morning on day 0, 1, 4 and 6 the test products (except retinol) were applied topically on the basis of […] (2 mg/cm2) of the concerned skin explants and spread using a small spatula. Each evening on day 0, 1, 4, 6 the retinol was applied topically on the basis of 2 μl/ explants (2 mg/cm2) of the concerned skin explants and spread using a small spatula. The vehicle V (DMSO 100%) was applied topically (same protocol as for products) in the morning and in the evening on day0, 1, 4, 6. The culture medium was refreshed on dayl, 4 and 6.
(§3) On day 0, 3 explants from the batch at day 0 were collected and cut in two parts. Half was fixed in buffered formalin solution and half was frozen at −80° C. On day 8, 3 explants from each experimental condition were collected and processed in the same way as on day 0.
(§4) After fixation for 24 hours in buffered formalin, the samples were dehydrated and impregnated in paraffin using a Leica PEARL dehydration automat. The samples were embedded using a Leica EG 1160 embedding station. 5-μm-thick sections were made using a Leica RM 2125 Minot-type microtome, and the sections were mounted on Superfrost® histological glass slides. The frozen samples were cut at 7-μm thickness with a Leica CM 3050 cryostat. The sections were then mounted on silanized glass slides Superfrost® Plus. The microscopical observations were realized using a Leica DMLB or Olympus BX43 microscope. Pictures were digitized with a numeric DP72 Olympus camera with cellSens storing software.
The cell viability of the epidermal and dermal structures was controlled on formalin-fixed paraffin-embedded (FFPE) skin sections after to Masson's trichrome staining, Goldner variant. The cell viability was assessed by microscopical observation.

The test system of the next assay is Collagen III. In words: Collagen III immunostaining on living human skin explants. It is filed as cell-based. Further details: key: 0 = unchanged; (+) = very slight increased; + = slight increased; ++ = moderate increased; +++ = fairly clear increased; ++++ = clear increased. The settings on record: topical. On the procedure:
as §1, §2, §3, §4
The staining was assessed by microscopical observation

The target in the next assay is T1, recombinant LRAT enzyme (Homo sapiens, UniProt O95237).
T1 construct: purchased Abnova H00009227-PO1
T1 sequence (O95237 1-230): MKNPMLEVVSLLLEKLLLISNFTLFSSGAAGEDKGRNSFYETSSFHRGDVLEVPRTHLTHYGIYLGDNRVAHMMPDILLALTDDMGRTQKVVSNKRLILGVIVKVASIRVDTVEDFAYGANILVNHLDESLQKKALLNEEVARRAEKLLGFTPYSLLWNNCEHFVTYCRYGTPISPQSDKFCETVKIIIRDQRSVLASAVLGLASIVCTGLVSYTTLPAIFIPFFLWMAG
Description: LRAT inhibition assay. The format is biochemical. As to conditions: inhibitor concentration 100 [μm]; relative to non-inhibited control reaction. On the procedure:
The following buffer was prepared and stored at 4° C.: 0.05 M potassium phosphate, 2.5 mM dithioerythritol, pH 7.0(PO4/DTE). On the day of the assay, 1 mg BSA per mL of buffer was added to give a P04/DTE/BSA working buffer. Retinol substrate (Fluke, 1 mM) was prepared in acetonitrile (Riedel-de-Haen, Chromasolv) and stored in amber bottles under nitrogen gas at −20° C. Solutions of 4 mM dilauroyl phosphatidyl choline in ethanol were prepared and stored at −20° C. Inhibitors were prepared as 10 mM stock solutions according their solubilities in H2O, ethanol, acetonitrile, DMSO or acetic acid. The quenching solution was prepared using pure ethanol containing 50 μg/mL butylhydroxytoluene (Aldrich, BHT) A pentane solution containing 50 μg/mL BHT was used for the extractions.
To a 2 dram glass vial, the following were added in order: […] buffer to give a total volume of 500 μL, 5 μL acyl donor (dilauroyl phosphatidyl choline), 5 μL inhibitor or solvent blank (10 mM stock or further dilutions) followed by 2 μg recombinant LRAT enzyme (Abnova, H00009227-PO1). The mixture was incubated for 5 min. at 37° C. to equilibrate the reaction temperature and then 5 μL of a 1 mM retinol solution was added. The vials were capped, vortexed for 5 seconds and incubated for 60 minutes at 37° C. The reaction was quenched by adding 0.5 mL of a ethanol/BHT quenching solution. The retinoids were extracted by adding 1 mL pentane/BHT, vortexing the tubes for several seconds and centrifuging the tubes at 4000 rpm in a bench-top centrifuge for 5 min. to quickly separate the layers. The upper pentane layer was removed into a clean vial, and the aqueous layer re-extracted twice with another 1 mL pentane/BHT, as described above. […] The dried residue was stored at −20° C. and directly analyzed by HPLC. The amount of retinyl laurate was quantified for LRAT activity by integration of the HPLC or UPLC signal as described below. […]
Two HPLC protocols were used for retinoid analysis. The separation of retinol and retinol esters was performed with a reverse-phase analytical column (Waters Symmetry (R), 75×4.6 mm, 3.5 μm; Eluent A: 0.07% trifluoroacetic acid TFA in water, B: 0.07% TFA in acetonitrile (AcN), linear gradient from 1% B to 99% B in 6 min, 24 min on 99% B) or ACQUITY UPLC BEH Phenyl 1.7 μm 2.1×50 mm (0.02% TFA in water and eluent B, 0.02% TFA in AcN with a gradient of 2% to 99% B in 0.9 min, 99% B for 1 min, from 99% to 2% B in 0.1 min and flow rate 0.5 ml/min at 40° C. The eluate was monitored with a PDA detector for absorbance at 325 nm. Quantification of the retinol and retinylester peak was based on references retinoic acid and retinyl acetate (Fluke). The inhibition [%] was calculated relative to the product yield from the non-inhibited control reaction.

The mark [2] stands for this setting: LRAT inhibitor 0.005% with Retinol 0.05%.
The mark [3] stands for this setting: LRAT inhibitor 0.005%, no retinol.
The mark [4] stands for this setting: LRAT inhibitor 0.01% with Retinol 0.05%.
The mark [5] stands for this setting: LRAT inhibitor 0.01%, no retinol.
The mark [6] stands for this setting: LRAT inhibitor 0.1% with Retinol 0.05%.

On to `CC1=C(/C=C/C(C)=C/C=C/C(C)=C/CO)C(C)(C)CCC1` [Retinol, reference compound], for which the “change of Epidermis thickness compared to control (vehicle only) on day 8” value in assay [1] (Retinol 0.05% alone) is reported as “+”. In the assay on Collagen III (Retinol 0.05% alone), the “change of Collagen III level (staining) compared to control (vehicle only) on day 8” value is recorded as “+”.

Take `CS(=O)(=O)N1CCN(C(=O)C(N)Cc2cccc(C(=N)N)c2)CC1.Cl.Cl` (centres unmarked) [H-(D,L)-F(3AMD)-Pzd(N—SO2Me) × 2 HCl, H-(D,L)-F(3AMD)-Pzd(N—SO2Me), reference compound]: the “LRAT inhibition, Inhibition [%]” value at recombinant LRAT enzyme is recorded as 6.8%.

As for `CCCCCCCCS(=O)(=O)NC(Cc1cccc(C(=N)N)c1)C(=O)N1CCN(S(=O)(=O)CCCCCCCC)CC1` (centres unmarked) [OCTS-(D,L)-F(3AMD)-Pzd(N—SO2Oct)], the “LRAT inhibition, Inhibition [%]” value at recombinant LRAT enzyme is on record as 89.9%.

For “DODS-(L)-F(4NH2)-Pzd(N—SO2Me) [reference compound]”, at recombinant LRAT enzyme, the “LRAT inhibition, Inhibition [%]” value is reported as 0%.

On to `CCCCCCCCCCS(=O)(=O)NC(Cc1cccc(C(=N)N)c1)C(=O)N1CCN(S(C)(=O)=O)CC1` (centres unmarked) [LRAT-IA, DECS-(L)-F(3AMD)-Pzd(N-SO2Me)], for which the “change of Epidermis thickness compared to control (vehicle only) on day 8” value in assay [1] (setting [2]) is recorded as “+”; in assay [1] (setting [3]), “(+)”; in assay [1] (setting [4]), “+”; in assay [1] (setting [5]), “+”; in assay [1] (setting [6]), “+”. Besides, the “change of Collagen III level (staining) compared to control (vehicle only) on day 8” value is on record as “+” with Collagen III (setting [2]); 0 with Collagen III (setting [3]); “++” with Collagen III (setting [4]); 0 in the assay on Collagen III (setting [5]); “+++” with Collagen III (setting [6]); “++” in the assay on Collagen III (LRAT inhibitor 0.1%, no retinol).

For `CC(=O)N1CCN(C(=O)[C@H](Cc2cccc(C(=N)N)c2)NS(=O)(=O)c2ccc3ccccc3c2)CC1` [2NAPS-(L)-F(3AMD)-Pzd(N—Ac)], the “LRAT inhibition, Inhibition [%]” value at recombinant LRAT enzyme came out at 38.7%.

These data come from patent US20240130944A1, “LRAT INHIBITORS FOR TREATING SKIN AGEING” (DSM IP Assets B.V., priority 2021, published 2024).
